Measurements published in article PMC2931804 (Clinical cancer research : an official journal of the …, 2010).
Where two headings read alike, the source gives them in different places.

[1] = DL3 800 mg twice daily × 3 + sLV5FU2, Any cycle, n = 3
[2] = DL3 1,000 mg once daily × 3 + sLV5FU2, 1st cycle, n = 3
[3] = DL3 1,000 mg once daily × 3 + sLV5FU2, Any cycle, n = 3
[4] = DL4 1,200 mg once daily × 3 + sLV5FU2, 1st cycle, n = 3
[5] = DL4 1,200 mg once daily × 3 + sLV5FU2, Any cycle, n = 3
[6] = DL5 1,400 mg once daily × 3 + sLV5FU2, 1st cycle, n = 3
[7] = DL5 1,400 mg once daily × 3 + sLV5FU2, Any cycle, n = 3
[8] = DL6 1,700 mg once daily × 3 + sLV5FU2, 1st cycle, n = 6
[9] = DL6 1,700 mg once daily × 3 + sLV5FU2, Any cycle, n = 6
[10] = DL7 2,000 mg once daily × 3 + sLV5FU2, 1st cycle, n = 3
[11] = DL7 2,000 mg once daily × 3 + sLV5FU2, Any cycle, n = 3

O=C(CCCCCCC(=O)Nc1ccccc1)NO [vorinostat, suberoylanilide hydroxamic acid]
without any DLT: DLT (once-daily dose levels 1 through 6, three patients each)
0/2/0: Infection, treatment-related, patients (G2/G3/G4) [9] | Anemia, treatment-related, patients (G2/G3/G4) [10] | Anemia, treatment-related, patients (G2/G3/G4) [11] | Fatigue, treatment-related, patients (G2/G3/G4) [11]
None: Patients with DLT (DL6 1,700 mg once daily × 3 + sLV5FU2, six patients)
3/3/0: Vomiting, treatment-related, patients (G2/G3/G4) [9]
3/2/0: Diarrhea, treatment-related, patients (G2/G3/G4) [9]
0/0/1: VTE, treatment-related, patients (G2/G3/G4) [1]
1/0/0: Anemia, treatment-related, patients (G2/G3/G4) [2] | Fatigue, treatment-related, patients (G2/G3/G4) [2] | Anemia, treatment-related, patients (G2/G3/G4) [3] | Mucositis, treatment-related, patients (G2/G3/G4) [3] | Vomiting, treatment-related, patients (G2/G3/G4) [4] | Anorexia, treatment-related, patients (G2/G3/G4) [5] | Nausea, treatment-related, patients (G2/G3/G4) [5] | Weight Loss, treatment-related, patients (G2/G3/G4) [5] | Neutropenia, treatment-related, patients (G2/G3/G4) [6] | Anemia, treatment-related, patients (G2/G3/G4) [7] | Anorexia, treatment-related, patients (G2/G3/G4) [7] | Vomiting, treatment-related, patients (G2/G3/G4) [7] | Weight Loss, treatment-related, patients (G2/G3/G4) [7] | Neutropenia, treatment-related, patients (G2/G3/G4) [9] | Thrombocytopenia, treatment-related, patients (G2/G3/G4) [9] | Anorexia, treatment-related, patients (G2/G3/G4) [10] | Dehydration, treatment-related, patients (G2/G3/G4) [10] | Nausea, treatment-related, patients (G2/G3/G4) [10] | Neutropenia, treatment-related, patients (G2/G3/G4) [10] | Neutropenia, treatment-related, patients (G2/G3/G4) [11]
1/1/0: Mucositis, treatment-related, patients (G2/G3/G4) [9] | Dehydration, treatment-related, patients (G2/G3/G4) [11]
3/0/0: Fatigue, treatment-related, patients (G2/G3/G4) [8]
0/0/0: Nausea, treatment-related, patients (G2/G3/G4) [1] | Vomiting, treatment-related, patients (G2/G3/G4) [1] | Anorexia, treatment-related, patients (G2/G3/G4) [2] | DVT/PE, treatment-related, patients (G2/G3/G4) [2] | Dehydration, treatment-related, patients (G2/G3/G4) [2] | Diarrhea, treatment-related, patients (G2/G3/G4) [2] | GI bleed, treatment-related, patients (G2/G3/G4) [2] | Hand and Foot, treatment-related, patients (G2/G3/G4) [2] | Infection, treatment-related, patients (G2/G3/G4) [2] | Mucositis, treatment-related, patients (G2/G3/G4) [2] | Nausea, treatment-related, patients (G2/G3/G4) [2] | Neutropenia, treatment-related, patients (G2/G3/G4) [2] | Thrombocytopenia, treatment-related, patients (G2/G3/G4) [2] | Vomiting, treatment-related, patients (G2/G3/G4) [2] | Weight Loss, treatment-related, patients (G2/G3/G4) [2] | Anorexia, treatment-related, patients (G2/G3/G4) [3] | DVT/PE, treatment-related, patients (G2/G3/G4) [3] | Dehydration, treatment-related, patients (G2/G3/G4) [3] | Diarrhea, treatment-related, patients (G2/G3/G4) [3] | GI bleed, treatment-related, patients (G2/G3/G4) [3] | Hand and Foot, treatment-related, patients (G2/G3/G4) [3] | Infection, treatment-related, patients (G2/G3/G4) [3] | Nausea, treatment-related, patients (G2/G3/G4) [3] | Neutropenia, treatment-related, patients (G2/G3/G4) [3] | Thrombocytopenia, treatment-related, patients (G2/G3/G4) [3] | Vomiting, treatment-related, patients (G2/G3/G4) [3] | Weight Loss, treatment-related, patients (G2/G3/G4) [3] | Anemia, treatment-related, patients (G2/G3/G4) [4] | Anorexia, treatment-related, patients (G2/G3/G4) [4] | DVT/PE, treatment-related, patients (G2/G3/G4) [4] | Dehydration, treatment-related, patients (G2/G3/G4) [4] | Diarrhea, treatment-related, patients (G2/G3/G4) [4] | GI bleed, treatment-related, patients (G2/G3/G4) [4] | Hand and Foot, treatment-related, patients (G2/G3/G4) [4] | Infection, treatment-related, patients (G2/G3/G4) [4] | Mucositis, treatment-related, patients (G2/G3/G4) [4] | Nausea, treatment-related, patients (G2/G3/G4) [4] | Neutropenia, treatment-related, patients (G2/G3/G4) [4] | Thrombocytopenia, treatment-related, patients (G2/G3/G4) [4] | Weight Loss, treatment-related, patients (G2/G3/G4) [4] | Anemia, treatment-related, patients (G2/G3/G4) [5] | Dehydration, treatment-related, patients (G2/G3/G4) [5] | GI bleed, treatment-related, patients (G2/G3/G4) [5] | Hand and Foot, treatment-related, patients (G2/G3/G4) [5] | Infection, treatment-related, patients (G2/G3/G4) [5] | Mucositis, treatment-related, patients (G2/G3/G4) [5] | Neutropenia, treatment-related, patients (G2/G3/G4) [5] | Thrombocytopenia, treatment-related, patients (G2/G3/G4) [5] | Anemia, treatment-related, patients (G2/G3/G4) [6] | Anorexia, treatment-related, patients (G2/G3/G4) [6] | DVT/PE, treatment-related, patients (G2/G3/G4) [6] | Dehydration, treatment-related, patients (G2/G3/G4) [6] | Diarrhea, treatment-related, patients (G2/G3/G4) [6] | Fatigue, treatment-related, patients (G2/G3/G4) [6] | GI bleed, treatment-related, patients (G2/G3/G4) [6] | Hand and Foot, treatment-related, patients (G2/G3/G4) [6] | Infection, treatment-related, patients (G2/G3/G4) [6] | Mucositis, treatment-related, patients (G2/G3/G4) [6] | Nausea, treatment-related, patients (G2/G3/G4) [6] | Thrombocytopenia, treatment-related, patients (G2/G3/G4) [6] | Vomiting, treatment-related, patients (G2/G3/G4) [6] | Weight Loss, treatment-related, patients (G2/G3/G4) [6] | DVT/PE, treatment-related, patients (G2/G3/G4) [7] | Dehydration, treatment-related, patients (G2/G3/G4) [7] | GI bleed, treatment-related, patients (G2/G3/G4) [7] | Hand and Foot, treatment-related, patients (G2/G3/G4) [7] | Infection, treatment-related, patients (G2/G3/G4) [7] | Mucositis, treatment-related, patients (G2/G3/G4) [7] | Nausea, treatment-related, patients (G2/G3/G4) [7] | Thrombocytopenia, treatment-related, patients (G2/G3/G4) [7] | Anemia, treatment-related, patients (G2/G3/G4) [8] | DVT/PE, treatment-related, patients (G2/G3/G4) [8] | Dehydration, treatment-related, patients (G2/G3/G4) [8] | GI bleed, treatment-related, patients (G2/G3/G4) [8] | Hand and Foot, treatment-related, patients (G2/G3/G4) [8] | Infection, treatment-related, patients (G2/G3/G4) [8] | Mucositis, treatment-related, patients (G2/G3/G4) [8] | Neutropenia, treatment-related, patients (G2/G3/G4) [8] | Thrombocytopenia, treatment-related, patients (G2/G3/G4) [8] | Vomiting, treatment-related, patients (G2/G3/G4) [8] | Weight Loss, treatment-related, patients (G2/G3/G4) [8] | GI bleed, treatment-related, patients (G2/G3/G4) [9] | Hand and Foot, treatment-related, patients (G2/G3/G4) [9] | Weight Loss, treatment-related, patients (G2/G3/G4) [9] | DVT/PE, treatment-related, patients (G2/G3/G4) [10] | Diarrhea, treatment-related, patients (G2/G3/G4) [10] | Infection, treatment-related, patients (G2/G3/G4) [10] | Mucositis, treatment-related, patients (G2/G3/G4) [10] | Vomiting, treatment-related, patients (G2/G3/G4) [10] | Weight Loss, treatment-related, patients (G2/G3/G4) [10] | DVT/PE, treatment-related, patients (G2/G3/G4) [11] | Diarrhea, treatment-related, patients (G2/G3/G4) [11] | Infection, treatment-related, patients (G2/G3/G4) [11] | Mucositis, treatment-related, patients (G2/G3/G4) [11] | Vomiting, treatment-related, patients (G2/G3/G4) [11] | Weight Loss, treatment-related, patients (G2/G3/G4) [11]
2/0/0: Neutropenia, treatment-related, patients (G2/G3/G4) [1] | Fatigue, treatment-related, patients (G2/G3/G4) [3] | Fatigue, treatment-related, patients (G2/G3/G4) [4] | Fatigue, treatment-related, patients (G2/G3/G4) [5] | Vomiting, treatment-related, patients (G2/G3/G4) [5] | Diarrhea, treatment-related, patients (G2/G3/G4) [7] | Fatigue, treatment-related, patients (G2/G3/G4) [7] | Anorexia, treatment-related, patients (G2/G3/G4) [8] | Nausea, treatment-related, patients (G2/G3/G4) [8] | Anorexia, treatment-related, patients (G2/G3/G4) [11] | Nausea, treatment-related, patients (G2/G3/G4) [11]
2/1/0: Thrombocytopenia, treatment-related, patients (G2/G3/G4) [1] | Anemia, treatment-related, patients (G2/G3/G4) [9] | Dehydration, treatment-related, patients (G2/G3/G4) [9]
600 mg: MTD of vorinostat, twice-daily schedule (orally twice daily × 3 days every 2 weeks, in combination with sLV5FU2)
6/0/0: Fatigue, treatment-related, patients (G2/G3/G4) [9]
0/1/0: DVT/PE, treatment-related, patients (G2/G3/G4) [5] | Diarrhea, treatment-related, patients (G2/G3/G4) [5] | Neutropenia, treatment-related, patients (G2/G3/G4) [7] | Diarrhea, treatment-related, patients (G2/G3/G4) [8] | DVT/PE, treatment-related, patients (G2/G3/G4) [9] | GI bleed, treatment-related, patients (G2/G3/G4) [10] | Thrombocytopenia, treatment-related, patients (G2/G3/G4) [10] | GI bleed, treatment-related, patients (G2/G3/G4) [11] | Hand and Foot, treatment-related, patients (G2/G3/G4) [11] | Thrombocytopenia, treatment-related, patients (G2/G3/G4) [11]
1,700 mg: MTD of vorinostat, once-daily schedule (orally once daily × 3 days every 2 weeks, in combination with sLV5FU2)
